# Results published in patent publication EP3634580B1, “COMPOSITIONS COMPRISING LACTULOSE FOR MAINTAINING OR IMPROVING GUT HEALTH IN HUMANS” (Fresenius Kabi Austria GmbH, priority 2017, dated 2018).
# Tested on: colon microbiota of human origin
# Assay: TNO Intestinal Model (TIM-2), in vitro model of the proximal colon: sodium hydroxide consumption
# Type: cell-based
# Settings: for Cumulative sodium hydroxide consumption: mean of n = 2
# Protocol: Crystalline lactulose was administered daily for 5 days to the TNO Intestinal Model (TIM-2), an in vitro model of the proximal colon. NaOH consumption, short-chain fatty acids (SCFA) production, ammonia production as well as relative abundance of microbiota were analyzed.
# The substance administered in this study was lactulose crystals (S.C.M. Società Chimica Mugello S.r.l., Vicchio, Italy). Experiments without the addition of lactulose served as negative control.
# The TNO Intestinal Model (TIM-2) is a dynamic in vitro model of the proximal colon. The TIM-2 system was inoculated with a highly metabolically active colon microbiota of human origin. In the system the following standardized conditions were simulated: body temperature; pH in the lumen of the proximal colon (pH 5.8); delivery of a substrate from the 'ileum' (SIEM; Standardized Ileum Efflux Medium); mixing and transport of the intestinal contents; anaerobiosis; absorption of water and absorption of fermentation products, metabolites and other low molecular weight compounds (via a semipermeable membrane inside the colon model).
# SIEM simulates material passing the ileocecal valve in humans. It contained the major non-digestible carbohydrates (pectin, xylan, arabinogalactan, amylopectin, starch) found in a normal western diet as well as protein (bactopepton, casein), ox-bile, Tween 80 as well as vitamins and minerals. SIEM was added to the system at a speed of 2.5 mL/h and the speed of the dialysis liquid was 1.5 mL/min. During the experiment, the intestinal contents were mixed continuously by the peristaltic movements of the TIM-2 system. In order to simulate the transit of the chime from proximal to distal colon, 25 mL of the lumen was removed every 24 h and discarded.
# Before performing each experiment, the system was inoculated with a standardized microbiota of human origin. This standardized microbiota was prepared using fecal donations from a group of 4 healthy volunteers (3 females, 1 male, age 38.8 ± 3.9 years; BMI (body mass index) 24.2 ± 1.5 kg/m^2). Individuals provided signed informed consent before participation, were non-smokers and had not used antibiotics, prebiotics, probiotics or laxatives within 1 month before the stool donation.
# At the start of the adaptation period the microbiota was allowed to adapt to the model conditions and SIEM for 16 h. After the adaptation period the 120 h test period started in which lactulose was added to TIM-2 once daily.
# Lactulose was added to the system at daily doses of 2 g, 3 g, 4 g, and 5 g lactulose. Each dose as well as the control experiment was studied in duplicate (n = 2). The test period of the TIM-2 experiments lasted 120 h (5 consecutive days).
# The pH was kept at a value of 5.8 by automatic titration with 2 M NaOH, the consumption of NaOH was monitored.
compound,measurement,setting,value
"OC[C@H]1O[C@@H](O[C@@H]2[C@@H](CO)OC(O)(CO)[C@H]2O)[C@H](O)[C@@H](O)[C@H]1O (mixture of isomers) [Lactulose, lactulose]",use of NaOH (in words),"daily doses of 2 g, 3 g, 4 g, 5 g, 120 h test period, versus control",dose dependent increased use of NaOH
same,Cumulative sodium hydroxide consumption,"lactulose 2 g daily, 0 h, control 19",19 mL
same,Cumulative sodium hydroxide consumption,"lactulose 2 g daily, 24 h, control 48",58 mL
same,Cumulative sodium hydroxide consumption,"lactulose 2 g daily, 48 h, control 71",89 mL
same,Cumulative sodium hydroxide consumption,"lactulose 2 g daily, 72 h, control 90",115 mL
same,Cumulative sodium hydroxide consumption,"lactulose 2 g daily, 96 h, control 107",139 mL
same,Cumulative sodium hydroxide consumption,"lactulose 2 g daily, 120 h, control 125",162 mL
same,Cumulative sodium hydroxide consumption,"lactulose 3 g daily, 0 h, control 19",20 mL
same,Cumulative sodium hydroxide consumption,"lactulose 3 g daily, 24 h, control 48",65 mL
same,Cumulative sodium hydroxide consumption,"lactulose 3 g daily, 48 h, control 71",105 mL
same,Cumulative sodium hydroxide consumption,"lactulose 3 g daily, 72 h, control 90",136 mL
same,Cumulative sodium hydroxide consumption,"lactulose 3 g daily, 96 h, control 107",169 mL
same,Cumulative sodium hydroxide consumption,"lactulose 3 g daily, 120 h, control 125",202 mL
same,Cumulative sodium hydroxide consumption,"lactulose 4 g daily, 0 h, control 19",20 mL
same,Cumulative sodium hydroxide consumption,"lactulose 4 g daily, 24 h, control 48",72 mL
same,Cumulative sodium hydroxide consumption,"lactulose 4 g daily, 48 h, control 71",113 mL
same,Cumulative sodium hydroxide consumption,"lactulose 4 g daily, 72 h, control 90",151 mL
same,Cumulative sodium hydroxide consumption,"lactulose 4 g daily, 96 h, control 107",185 mL
same,Cumulative sodium hydroxide consumption,"lactulose 4 g daily, 120 h, control 125",223 mL
same,Cumulative sodium hydroxide consumption,"lactulose 5 g daily, 0 h, control 19",18 mL
same,Cumulative sodium hydroxide consumption,"lactulose 5 g daily, 24 h, control 48",69 mL
same,Cumulative sodium hydroxide consumption,"lactulose 5 g daily, 48 h, control 71",117 mL
same,Cumulative sodium hydroxide consumption,"lactulose 5 g daily, 72 h, control 90",157 mL
same,Cumulative sodium hydroxide consumption,"lactulose 5 g daily, 96 h, control 107",193 mL
same,Cumulative sodium hydroxide consumption,"lactulose 5 g daily, 120 h, control 125",223 mL
